Reference: patent US11725011B2, “Bicyclic urea kinase inhibitors and uses thereof” (The Broad Institute, Inc., priority 2016, dated 2023)

Tests used:
MTOR = MTOR (Homo sapiens (Human), UniProt P42345); test: KINOMEscan; format: binding; conditions: 1 uM
LRRK2 (G2019S) = LRRK2 (G2019S) (Homo sapiens (Human), UniProt Q5S007, G2019S); test: KINOMEscan; format: binding; conditions: 1 uM
NEK5 = NEK5 (Homo sapiens (Human), UniProt Q6P3R8); test: KINOMEscan; format: binding; conditions: 1 uM
[1] = target: RSK3 (Kin.Dom.2-C-terminal) (Homo sapiens (Human), UniProt Q15349); test: KINOMEscan; format: binding; conditions: 1 uM
RIPK4 = RIPK4 (Homo sapiens (Human), UniProt P57078); test: KINOMEscan; format: binding; conditions: 1 uM
EPHB1 = EPHB1 (Homo sapiens (Human), UniProt P54762); test: KINOMEscan; format: binding; conditions: 1 uM
FLT3 (K663Q) = FLT3 (K663Q) (Homo sapiens (Human), UniProt P36888, K663Q); test: KINOMEscan; format: binding; conditions: 1 uM
TIE2 = TIE2 (Homo sapiens (Human), UniProt Q02763); test: KINOMEscan; format: binding; conditions: 1 uM
PRKG1 = PRKG1 (Homo sapiens (Human), UniProt Q13976); test: KINOMEscan; format: binding; conditions: 1 uM
[2] = target: ABL1 (F317I)-nonphosphorylated (Homo sapiens (Human), UniProt P00519, F317I); test: KINOMEscan; format: binding; conditions: 1 uM
SIK1 = SIK1 (Homo sapiens (Human), UniProt P57059); test: Percent activity against SIK1 at 1 μM; format: biochemical
PAK3 = PAK3 (Homo sapiens (Human), UniProt O75914); test: KINOMEscan; format: binding; conditions: 1 uM
RIOK1 = RIOK1 (Homo sapiens (Human), UniProt Q9BRS2); test: KINOMEscan; format: binding; conditions: 1 uM
[3] = target: ABL1 (Q252H)-phosphorylated (Homo sapiens (Human), UniProt P00519, Q252H); test: KINOMEscan; format: binding; conditions: 1 uM
DYRK2 = DYRK2 (Homo sapiens (Human), UniProt Q92630); test: KINOMEscan; format: binding; conditions: 1 uM
[4] = target: RSK3 (Kin.Dom.1-N-terminal) (Homo sapiens (Human), UniProt Q15349); test: KINOMEscan; format: binding; conditions: 1 uM
ACVR2B = ACVR2B (Homo sapiens (Human), UniProt Q13705); test: KINOMEscan; format: binding; conditions: 1 uM
MEK1 = MEK1 (Homo sapiens (Human), UniProt Q02750); test: KINOMEscan; format: binding; conditions: 1 uM
PIK3CA (I800L) = PIK3CA (I800L) (Homo sapiens (Human), UniProt P42336, I800L); test: KINOMEscan; format: binding; conditions: 1 uM
ITK = ITK (Homo sapiens (Human), UniProt Q08881); test: KINOMEscan; format: binding; conditions: 1 uM
FES = FES (Homo sapiens (Human), UniProt P07332); test: KINOMEscan; format: binding; conditions: 1 uM
IRAK4 = IRAK4 (Homo sapiens (Human), UniProt Q9NWZ3); test: KINOMEscan; format: binding; conditions: 1 uM
SRPK3 = SRPK3 (Homo sapiens (Human), UniProt Q9UPE1); test: KINOMEscan; format: binding; conditions: 1 uM
CSF1R = CSF1R (Homo sapiens (Human), UniProt P07333); test: KINOMEscan; format: binding; conditions: 1 uM
PRP4 = PRP4 (Homo sapiens (Human), UniProt Q13523); test: KINOMEscan; format: binding; conditions: 1 uM
SNARK = SNARK (Homo sapiens (Human), UniProt Q9H093); test: KINOMEscan; format: binding; conditions: 1 uM
PIK3CA (H1047Y) = PIK3CA (H1047Y) (Homo sapiens (Human), UniProt P42336, H1047Y); test: KINOMEscan; format: binding; conditions: 1 uM
PDGFRB = PDGFRB (Homo sapiens (Human), UniProt P09619); test: KINOMEscan; format: binding; conditions: 1 uM
PAK1 = PAK1 (Homo sapiens (Human), UniProt Q13153); test: KINOMEscan; format: binding; conditions: 1 uM
MEK4 = MEK4 (Homo sapiens (Human), UniProt P45985); test: KINOMEscan; format: binding; conditions: 1 uM
LKB1 = LKB1 (Homo sapiens (Human), UniProt Q15831); test: KINOMEscan; format: binding; conditions: 1 uM
[5] = target: EGFR (L747-T751del, Sins) (Homo sapiens (Human), UniProt P00533, DEL747-751/INS746S); test: KINOMEscan; format: binding; conditions: 1 uM
ERK3 = ERK3 (Homo sapiens (Human), UniProt Q16659); test: KINOMEscan; format: binding; conditions: 1 uM
SIK = SIK (Homo sapiens (Human), UniProt P57059); test: KINOMEscan; format: binding; conditions: 1 uM
CAMKK2 = CAMKK2 (Homo sapiens (Human), UniProt Q96RR4); test: KINOMEscan; format: binding; conditions: 1 uM
PIK3CA (E542K) = PIK3CA (E542K) (Homo sapiens (Human), UniProt P42336, E542K); test: KINOMEscan; format: binding; conditions: 1 uM
NEK6 = NEK6 (Homo sapiens (Human), UniProt Q9HC98); test: KINOMEscan; format: binding; conditions: 1 uM
MAK = MAK (Homo sapiens (Human), UniProt P20794); test: KINOMEscan; format: binding; conditions: 1 uM
MET (Y1235D) = MET (Y1235D) (Homo sapiens (Human), UniProt P08581, Y1235D); test: KINOMEscan; format: binding; conditions: 1 uM

SIK1, sequence (P57059 whole entry): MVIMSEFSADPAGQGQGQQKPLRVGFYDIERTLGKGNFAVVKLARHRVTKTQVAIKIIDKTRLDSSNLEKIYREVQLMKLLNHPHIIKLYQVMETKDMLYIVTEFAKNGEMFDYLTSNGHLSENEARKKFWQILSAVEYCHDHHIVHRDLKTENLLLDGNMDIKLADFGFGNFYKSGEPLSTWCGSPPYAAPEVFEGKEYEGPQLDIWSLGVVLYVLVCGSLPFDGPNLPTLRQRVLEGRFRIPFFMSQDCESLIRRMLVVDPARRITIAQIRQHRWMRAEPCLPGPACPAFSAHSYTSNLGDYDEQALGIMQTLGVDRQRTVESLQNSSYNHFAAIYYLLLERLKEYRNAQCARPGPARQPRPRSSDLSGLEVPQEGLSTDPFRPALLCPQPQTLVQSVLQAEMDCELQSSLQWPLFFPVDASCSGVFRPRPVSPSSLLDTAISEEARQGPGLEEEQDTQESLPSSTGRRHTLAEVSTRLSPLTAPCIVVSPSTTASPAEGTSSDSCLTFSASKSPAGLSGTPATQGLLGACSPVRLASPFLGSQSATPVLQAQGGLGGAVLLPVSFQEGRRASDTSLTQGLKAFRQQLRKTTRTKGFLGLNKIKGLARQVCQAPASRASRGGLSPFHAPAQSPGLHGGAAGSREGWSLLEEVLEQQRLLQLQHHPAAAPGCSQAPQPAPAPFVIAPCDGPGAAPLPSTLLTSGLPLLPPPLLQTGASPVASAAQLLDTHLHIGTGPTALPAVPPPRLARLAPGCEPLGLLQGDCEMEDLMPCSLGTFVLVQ
TIE2, sequence (Q02763 23-1124): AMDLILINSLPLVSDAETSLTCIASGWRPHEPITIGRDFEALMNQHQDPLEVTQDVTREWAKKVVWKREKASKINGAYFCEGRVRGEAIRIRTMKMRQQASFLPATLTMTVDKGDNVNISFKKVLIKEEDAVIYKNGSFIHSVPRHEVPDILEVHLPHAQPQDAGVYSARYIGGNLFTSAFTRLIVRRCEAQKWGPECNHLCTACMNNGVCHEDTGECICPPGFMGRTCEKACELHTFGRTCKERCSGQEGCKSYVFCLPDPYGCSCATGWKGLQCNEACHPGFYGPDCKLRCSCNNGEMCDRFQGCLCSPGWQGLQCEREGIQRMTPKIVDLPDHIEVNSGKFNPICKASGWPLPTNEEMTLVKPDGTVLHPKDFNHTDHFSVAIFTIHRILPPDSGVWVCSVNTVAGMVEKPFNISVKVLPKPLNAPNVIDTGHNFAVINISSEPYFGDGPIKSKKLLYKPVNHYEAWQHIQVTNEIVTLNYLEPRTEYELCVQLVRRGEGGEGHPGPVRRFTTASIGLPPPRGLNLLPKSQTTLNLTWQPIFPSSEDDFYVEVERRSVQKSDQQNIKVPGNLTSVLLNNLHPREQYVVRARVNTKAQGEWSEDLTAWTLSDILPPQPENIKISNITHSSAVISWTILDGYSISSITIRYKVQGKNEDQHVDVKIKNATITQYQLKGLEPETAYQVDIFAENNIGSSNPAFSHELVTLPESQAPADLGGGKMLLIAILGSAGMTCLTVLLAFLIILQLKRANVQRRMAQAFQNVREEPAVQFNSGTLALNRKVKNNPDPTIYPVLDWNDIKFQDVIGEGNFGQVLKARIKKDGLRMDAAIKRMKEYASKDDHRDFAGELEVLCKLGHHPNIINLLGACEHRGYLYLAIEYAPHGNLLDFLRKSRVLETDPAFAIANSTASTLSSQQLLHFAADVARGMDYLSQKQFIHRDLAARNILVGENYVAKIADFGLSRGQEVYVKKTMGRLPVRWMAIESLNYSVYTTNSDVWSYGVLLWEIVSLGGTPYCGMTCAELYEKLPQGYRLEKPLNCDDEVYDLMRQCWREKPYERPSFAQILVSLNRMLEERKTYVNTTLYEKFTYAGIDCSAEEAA
RSK3 (Kin.Dom.1-N-terminal), sequence (Q15349 59-318): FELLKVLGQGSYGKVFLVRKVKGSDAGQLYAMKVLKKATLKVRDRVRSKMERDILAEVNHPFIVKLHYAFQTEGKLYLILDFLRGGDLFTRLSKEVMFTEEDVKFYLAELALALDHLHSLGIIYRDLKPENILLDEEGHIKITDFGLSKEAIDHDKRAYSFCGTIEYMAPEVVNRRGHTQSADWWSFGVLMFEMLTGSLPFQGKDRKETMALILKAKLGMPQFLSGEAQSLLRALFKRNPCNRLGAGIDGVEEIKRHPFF
ACVR2B, sequence (Q13705 19-512): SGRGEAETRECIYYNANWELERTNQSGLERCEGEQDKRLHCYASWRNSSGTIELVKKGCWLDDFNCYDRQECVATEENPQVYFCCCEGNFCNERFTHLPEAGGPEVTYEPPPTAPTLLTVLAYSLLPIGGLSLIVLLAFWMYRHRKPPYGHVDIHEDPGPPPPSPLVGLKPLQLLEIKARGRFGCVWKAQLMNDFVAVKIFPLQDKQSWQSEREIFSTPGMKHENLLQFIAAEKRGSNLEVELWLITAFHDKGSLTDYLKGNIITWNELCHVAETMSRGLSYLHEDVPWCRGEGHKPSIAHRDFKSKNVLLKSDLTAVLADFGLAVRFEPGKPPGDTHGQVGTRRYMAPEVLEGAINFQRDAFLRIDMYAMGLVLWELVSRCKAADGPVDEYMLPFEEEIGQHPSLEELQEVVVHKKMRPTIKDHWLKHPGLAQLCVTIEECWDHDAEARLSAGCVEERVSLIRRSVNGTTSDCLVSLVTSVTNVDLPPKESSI
FES, sequence (P07332 whole entry): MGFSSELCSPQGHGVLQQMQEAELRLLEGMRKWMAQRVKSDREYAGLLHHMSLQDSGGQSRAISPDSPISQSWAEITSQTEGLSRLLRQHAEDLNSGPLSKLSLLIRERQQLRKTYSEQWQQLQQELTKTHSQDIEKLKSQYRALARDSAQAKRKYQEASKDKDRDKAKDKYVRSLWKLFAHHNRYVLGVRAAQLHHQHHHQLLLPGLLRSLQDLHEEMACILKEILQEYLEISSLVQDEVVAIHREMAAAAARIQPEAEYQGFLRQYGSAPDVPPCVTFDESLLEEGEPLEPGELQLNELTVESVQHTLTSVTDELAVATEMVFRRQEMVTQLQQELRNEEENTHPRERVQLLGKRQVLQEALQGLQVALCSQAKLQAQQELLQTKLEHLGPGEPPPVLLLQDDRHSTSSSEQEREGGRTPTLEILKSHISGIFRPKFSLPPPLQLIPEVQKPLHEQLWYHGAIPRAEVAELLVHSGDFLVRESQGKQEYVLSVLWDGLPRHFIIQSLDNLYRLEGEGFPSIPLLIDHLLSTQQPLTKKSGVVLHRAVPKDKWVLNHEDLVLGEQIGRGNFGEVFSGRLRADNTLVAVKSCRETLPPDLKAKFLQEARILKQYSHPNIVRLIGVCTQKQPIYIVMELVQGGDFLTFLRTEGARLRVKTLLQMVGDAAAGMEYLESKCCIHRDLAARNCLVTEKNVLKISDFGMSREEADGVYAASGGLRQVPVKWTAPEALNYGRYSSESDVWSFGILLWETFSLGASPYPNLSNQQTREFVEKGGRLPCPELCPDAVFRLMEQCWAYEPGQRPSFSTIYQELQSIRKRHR
EGFR (L747-T751del, Sins), sequence (P00533 other isoform, or with tags, fused parts or gaps del 1-668/ins S behind 746/del 747-751/del 1012-1210 limits assumed): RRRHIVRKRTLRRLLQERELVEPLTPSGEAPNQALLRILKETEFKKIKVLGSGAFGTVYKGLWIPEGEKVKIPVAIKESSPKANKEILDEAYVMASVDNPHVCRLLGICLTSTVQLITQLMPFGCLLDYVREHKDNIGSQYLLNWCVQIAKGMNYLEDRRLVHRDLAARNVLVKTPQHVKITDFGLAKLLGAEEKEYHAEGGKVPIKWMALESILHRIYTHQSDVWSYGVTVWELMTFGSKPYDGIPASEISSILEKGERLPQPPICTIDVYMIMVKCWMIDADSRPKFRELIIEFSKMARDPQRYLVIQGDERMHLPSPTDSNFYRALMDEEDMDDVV
PAK3, sequence (O75914 whole entry): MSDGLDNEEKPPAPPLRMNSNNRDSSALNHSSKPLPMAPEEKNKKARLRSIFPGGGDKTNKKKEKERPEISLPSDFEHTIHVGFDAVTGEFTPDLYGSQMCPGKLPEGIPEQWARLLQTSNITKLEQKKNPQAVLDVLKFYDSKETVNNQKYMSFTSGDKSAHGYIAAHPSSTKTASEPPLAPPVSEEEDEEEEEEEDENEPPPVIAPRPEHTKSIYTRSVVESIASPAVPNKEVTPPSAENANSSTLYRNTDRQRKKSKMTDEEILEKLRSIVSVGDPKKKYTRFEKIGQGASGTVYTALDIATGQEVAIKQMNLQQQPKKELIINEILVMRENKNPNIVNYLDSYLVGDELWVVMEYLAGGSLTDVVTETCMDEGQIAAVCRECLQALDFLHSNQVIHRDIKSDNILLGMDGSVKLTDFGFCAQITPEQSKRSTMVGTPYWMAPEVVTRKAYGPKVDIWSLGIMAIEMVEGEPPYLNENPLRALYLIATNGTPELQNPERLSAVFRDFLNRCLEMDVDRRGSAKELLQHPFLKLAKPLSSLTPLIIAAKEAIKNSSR
MEK4, sequence (P45985 whole entry): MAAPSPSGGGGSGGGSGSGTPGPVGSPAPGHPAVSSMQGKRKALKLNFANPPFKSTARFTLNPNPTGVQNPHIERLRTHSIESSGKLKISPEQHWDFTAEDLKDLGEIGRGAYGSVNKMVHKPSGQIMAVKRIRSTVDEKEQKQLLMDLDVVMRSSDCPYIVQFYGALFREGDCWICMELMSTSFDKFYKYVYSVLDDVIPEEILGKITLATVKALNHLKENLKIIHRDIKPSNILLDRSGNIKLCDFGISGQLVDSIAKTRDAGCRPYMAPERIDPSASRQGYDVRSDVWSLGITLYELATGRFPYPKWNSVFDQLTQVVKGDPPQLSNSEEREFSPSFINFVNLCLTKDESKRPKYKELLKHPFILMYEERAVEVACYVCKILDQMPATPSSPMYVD
SIK, sequence (P57059 whole entry): as the sequence (P57059 whole entry) above

COc1ccc(N2C(=O)N(c3c(C)cccc3C)Cc3cnc(Nc4ccc(N5CCN(C)CC5)cc4)nc32)c(OC)c1 [HG-11-136-01]
KINOMEscan MTOR (MTOR): 83
KINOMEscan LRRK2 (G2019S) (LRRK2 (G2019S)): 6.6
KINOMEscan NEK5 (NEK5): 98
KINOMEscan RSK3 (Kin.Dom.2-C-terminal) [1]: 67
KINOMEscan RIPK4 (RIPK4): 55
KINOMEscan EPHB1 (EPHB1): 0.3
KINOMEscan FLT3 (K663Q) (FLT3 (K663Q)): 31
KINOMEscan TIE2 (TIE2): 0.75
KINOMEscan PRKG1 (PRKG1): 100
KINOMEscan ABL1 (F317I)-nonphosphorylated [2]: 0
Enzyme activity at 1 μM (%) SIK1 (SIK1; 1 μM): 19.1%
SIK1 % ACTIVITY (SIK1; compound at 1 μM, approximate Km for ATP): 19.1%
KINOMEscan PAK3 (PAK3): 11
KINOMEscan RIOK1 (RIOK1): 9.2
KINOMEscan ABL1 (Q252H)-phosphorylated [3]: 0.25
KINOMEscan DYRK2 (DYRK2): 5
KINOMEscan RSK3 (Kin.Dom.1-N-terminal) [4]: 40
KINOMEscan ACVR2B (ACVR2B): 3.2
KINOMEscan MEK1 (MEK1): 0.55
KINOMEscan PIK3CA (I800L) (PIK3CA (I800L)): 94
KINOMEscan ITK (ITK): 66
KINOMEscan FES (FES): 0
KINOMEscan IRAK4 (IRAK4): 49
KINOMEscan SRPK3 (SRPK3): 70
KINOMEscan CSF1R (CSF1R): 0.35
KINOMEscan PRP4 (PRP4): 100
KINOMEscan SNARK (SNARK): 0.4
KINOMEscan PIK3CA (H1047Y) (PIK3CA (H1047Y)): 63
KINOMEscan PDGFRB (PDGFRB): 0
KINOMEscan PAK1 (PAK1): 3.7
KINOMEscan MEK4 (MEK4): 48
KINOMEscan LKB1 (LKB1): 69
KINOMEscan EGFR (L747-T751del, Sins) [5]: 0.3
KINOMEscan ERK3 (ERK3): 81
KINOMEscan SIK (SIK): 0.9
KINOMEscan CAMKK2 (CAMKK2): 100
KINOMEscan PIK3CA (E542K) (PIK3CA (E542K)): 88
KINOMEscan NEK6 (NEK6): 100
KINOMEscan MAK (MAK): 100
KINOMEscan MET (Y1235D) (MET (Y1235D)): 61
